From patent publication US20260274892A1, “MACROCYCLIC BROAD SPECTRUM ANTIBIOTICS” (RQx Pharmaceuticals, Inc., priority 2017, published 2026)

Test system: Escherichia coli ATCC 25922
Assay: Minimum inhibitory concentration (MIC), CLSI broth micro-dilution, E. coli
Format: cell-based
Conditions: Escherichia coli, ATCC25922, 22 h, Table 6, cation adjusted Mueller Hinton Broth + 0.002% Tween-80, 35° C.
Description: In vitro antimicrobial activity of each compound was determined by measuring minimal inhibitor concentrations (MICs) using the broth micro-dilution technique as approved by the Clinical and Laboratory Standards Institute (CLSI) (Methods for Dilution Antimicrobial Susceptibility Tests for Bacteria that Grow Aerobically; Approved Standard-Eighth Edition. CLSI document M07-A8. Wayne, PA: Clinical and Laboratroy Standards; 2009). Antibacterial activity was measure against two strains of bacteria: a Methicillin Resistant Staphylococcus aureus strain USA 200, (S. aureus) and Escherichia coli ATCC 25922 (E. coli), a clinically relevant Gram-negative strain. Cells were inoculated onto plates of Trypyticase Soy Agar or Luria Agar respectively and grown at 35° C. for 20 hours. Inocula suspensions were prepared by scraping cells into 1 mL of testing media (cation adjusted Mueller Hinton Broth supplemented with 0.002% v/v Tween-80) and diluting to a final OD600nm of 0.01.
Test compounds were prepared in DMSO at a concentration of 10 mg/mL. In protocol 1, the compound stocks were diluted into testing media at a concentration of 64 µg/ml and serial 2-fold dilutions were made in the same media, in 96-well U bottom microtiter dishes, for a total of 10 compound concentrations. In protocol 2, the compound stocks were diluted into testing media at a concentration of 4 µg/mL and serial 2-fold dilutions were made in the same media, in 96-well U bottom microtiter dishes, for a total of 10 compound concentrations. In protocol 3, compound stocks were diluted into testing media at a concentration of 0.5 μg/mL, with serial 2-fold dilutions conducted as described above. In protocol 4, compound stocks were diluted into testing media at a concentration of […], with serial 2-fold dilutions conducted as described above. Inocula suspensions were added to the 2-fold serial dilutions of test compounds to a final density of GD OD600nm of 0.0005 and incubated at 35° C. for 22 hours.

Point of comparison: `Cc1nc(-c2ccc(C3=CCCCC3)cc2)nc(C)c1C(=O)N[C@@H](CCN)C(=O)N(C)[C@@H]1C(=O)N[C@@H](C)C(=O)N[C@H](C(=O)NCC#N)Cc2ccc(OCCN)c(c2)-c2cc1ccc2OCCN` (racemic) [Compound 303, rac-(8S,11S,14S)-3,18-bis(2-aminoethoxy)-N-(cyanomethyl)-11-methyl-14-[methyl-[rac-(2S)-4-amino-2-[[2-[4-(cyclohexen-1-yl)phenyl]-4,6-dimethyl-pyrimidine-5-carbonyl]amino]butanoyl]amino]-10,13-dioxo-9,12-diazatricyclo[13.3.1.12,6]icosa-1(18),2(20),3,5,15(19),16-hexaene-8-carboxamide], MIC 0.13 µM. Against it:
- Cc1nc(-c2ccc(C3CCCC3)cc2)nc(C)c1C(=O)N[C@@H](CCN)C(=O)N(C)[C@@H]1C(=O)N[C@@H](C)C(=O)N[C@H](C(=O)NCC#N)Cc2ccc(OCCN)c(c2)-c2cc1ccc2OCCN (racemic) [Compound 302, rac-(8S,11S,14S)-3,18-bis(2-aminoethoxy)-N-(cyanomethyl)-11-methyl-14-[methyl-[rac-(2S)-4-amino-2-[[2-(4-cyclopentylphenyl)-4,6-dimethyl-pyrimidine-5-carbonyl]amino]butanoyl]amino]-10,13-dioxo-9,12-diazatricyclo[13.3.1.12,6]icosa-1(18),2(20),3,5,15(19),16-hexaene-8-carboxamide] — 3.8-fold higher, 0.5 µM

Same assay, conditions: Escherichia coli, ATCC25922, Table 6, cation adjusted Mueller Hinton Broth + 0.002% Tween-80, 35° C., 22 hours

Point of comparison: `CCCCc1ccc(-c2nc(C)c(C(=O)N[C@@H](CCN)C(=O)N(C)[C@@H]3C(=O)N[C@@H](C)C(=O)N[C@H](C(=O)NCC#N)Cc4ccc(OCCN)c(c4)-c4cc3ccc4OCCN)c(C)n2)nc1` (racemic) [Compound 293, rac-(8S,11S,14S)-3,18-bis(2-aminoethoxy)-N-(cyanomethyl)-11-methyl-14-[methyl-[rac-(2S)-4-amino-2-[[2-(5-butyl-2-pyridyl)-4,6-dimethyl-pyrimidine-5-carbonyl]amino]butanoyl]amino]-10,13-dioxo-9,12-diazatricyclo[13.3.1.12,6]icosa-1(18),2(20),3,5,15(19),16-hexaene-8-carboxamide], MIC 1.5 µM. Against it:
- Cc1cc(C(C)(C)C)ccc1-c1ccc(C(=O)N[C@@H](CCN)C(=O)N(C)[C@@H]2C(=O)N[C@@H](C)C(=O)N[C@H](C(=O)NCC#N)Cc3ccc(OCCN)c(c3)-c3cc2ccc3OCCN)c(C)n1 (racemic) [Compound 210, rac-(8S,11S,14S)-3,18-bis(2-aminoethoxy)-N-(cyanomethyl)-11-methyl-14-[methyl-[rac-(2S)-4-amino-2-[[6-(4-tert-butyl-2-methyl-phenyl)-2-methyl-pyridine-3-carbonyl]amino]butanoyl]amino]-10,13-dioxo-9,12-diazatricyclo[13.3.1.12,6]icosa-1(18),2(20),3,5,15(19),16-hexaene-8-carboxamide] — 4.3-fold lower, 0.35 µM
- Cc1nc(-c2ccc(C3(C(F)(F)F)CC3)cc2)ccc1C(=O)N[C@@H](CCN)C(=O)N(C)[C@@H]1C(=O)N[C@@H](C)C(=O)N[C@H](C(=O)NCC#N)Cc2ccc(OCCN)c(c2)-c2cc1ccc2OCCN (racemic) [Compound 211, rac-(8S,11S,14S)-3,18-bis(2-aminoethoxy)-N-(cyanomethyl)-11-methyl-14-[methyl-[rac-(2S)-4-amino-2-[[2-methyl-6-[4-[1-(trifluoromethyl)cyclopropyl]phenyl]pyridine-3-carbonyl]amino]butanoyl]amino]-10,13-dioxo-9,12-diazatricyclo[13.3.1.12,6]icosa-1(18),2(20),3,5,15(19),16-hexaene-8-carboxamide] — 8.8-fold lower, 0.17 µM
- Cc1cc(-c2ccc(C(C)(C)C)cc2)ncc1C(=O)N[C@@H](CCN)C(=O)N(C)[C@@H]1C(=O)N[C@@H](C)C(=O)N[C@H](C(=O)NCC#N)Cc2ccc(OCCN)c(c2)-c2cc1ccc2OCCN (racemic) [Compound 215, rac-(8S,11S,14S)-3,18-bis(2-aminoethoxy)-N-(cyanomethyl)-11-methyl-14-[methyl-[rac-(2S)-4-amino-2-[[6-(4-tert-butylphenyl)-4-methyl-pyridine-3-carbonyl]amino]butanoyl]amino]-10,13-dioxo-9,12-diazatricyclo[13.3.1.12,6]icosa-1(18),2(20),3,5,15(19),16-hexaene-8-carboxamide] — 12-fold lower, 0.13 µM
- Cc1nc(-c2ccc(CC(C)(C)C)cc2)ncc1C(=O)N[C@@H](CCN)C(=O)N(C)[C@@H]1C(=O)N[C@@H](C)C(=O)N[C@H](C(=O)NCC#N)Cc2ccc(OCCN)c(c2)-c2cc1ccc2OCCN (racemic) [Compound 226, rac-(8S,11S,14S)-3,18-bis(2-aminoethoxy)-N-(cyanomethyl)-11-methyl-14-[methyl-[rac-(2S)-4-amino-2-[[2-[4-(2,2-dimethylpropyl)phenyl]-4-methyl-pyrimidine-5-carbonyl]amino]butanoyl]amino]-10,13-dioxo-9,12-diazatricyclo[13.3.1.12,6]icosa-1(18),2(20),3,5,15(19),16-hexaene-8-carboxamide] — 15-fold lower, 0.099 µM
- Cc1nc(C#CC(C)(C)C)ncc1C(=O)N[C@@H](CCN)C(=O)N(C)[C@@H]1C(=O)N[C@@H](C)C(=O)N[C@H](C(=O)NCC#N)Cc2ccc(OCCN)c(c2)-c2cc1ccc2OCCN (racemic) [Compound 228, rac-(8S,11S,14S)-3,18-bis(2-aminoethoxy)-N-(cyanomethyl)-11-methyl-14-[methyl-[rac-(2S)-4-amino-2-[[2-(3,3-dimethylbut-1-ynyl)-4-methyl-pyrimidine-5-carbonyl]amino]butanoyl]amino]-10,13-dioxo-9,12-diazatricyclo[13.3.1.12,6]icosa-1(18),2(20),3,5,15(19),16-hexaene-8-carboxamide] — 1.5-fold higher, 2.3 µM
- CCCCCOc1ccc(-c2ncc(C(=O)N[C@@H](CCN)C(=O)N(C)[C@@H]3C(=O)N[C@@H](C)C(=O)N[C@H](C(=O)NCC#N)Cc4ccc(OCCN)c(c4)-c4cc3ccc4OCCN)c(C)n2)cc1 (racemic) [Compound 241, rac-(8S,11S,14S)-3,18-bis(2-aminoethoxy)-N-(cyanomethyl)-11-methyl-14-[methyl-[rac-(2S)-4-amino-2-[[4-methyl-2-(4-pentoxyphenyl)pyrimidine-5-carbonyl]amino]butanoyl]amino]-10,13-dioxo-9,12-diazatricyclo[13.3.1.12,6]icosa-1(18),2(20),3,5,15(19),16-hexaene-8-carboxamide] — 15-fold lower, 0.097 µM
- Cc1nc(-c2ccc(OCC(C)(C)C)cc2)ncc1C(=O)N[C@@H](CCN)C(=O)N(C)[C@@H]1C(=O)N[C@@H](C)C(=O)N[C@H](C(=O)NCC#N)Cc2ccc(OCCN)c(c2)-c2cc1ccc2OCCN (racemic) [Compound 252, rac-(8S,11S,14S)-3,18-bis(2-aminoethoxy)-N-(cyanomethyl)-11-methyl-14-[methyl-[rac-(2S)-4-amino-2-[[2-[4-(2,2-dimethylpropoxy)phenyl]-4-methyl-pyrimidine-5-carbonyl]amino]butanoyl]amino]-10,13-dioxo-9,12-diazatricyclo[13.3.1.12,6]icosa-1(18),2(20),3,5,15(19),16-hexaene-8-carboxamide] — 15-fold lower, 0.097 µM
- Cc1nc(-c2ccc(C3(C4CCCC4)CC3)cc2)nc(C)c1C(=O)N[C@@H](CCN)C(=O)N(C)[C@@H]1C(=O)N[C@@H](C)C(=O)N[C@H](C(=O)NCC#N)Cc2ccc(OCCN)c(c2)-c2cc1ccc2OCCN (racemic) [Compound 286, rac-(8S,11S,14S)-3,18-bis(2-aminoethoxy)-N-(cyanomethyl)-11-methyl-14-[methyl-[rac-(2S)-4-amino-2-[[2-[4-(1-cyclopentylcyclopropyl)phenyl]-4,6-dimethyl-pyrimidine-5-carbonyl]amino]butanoyl]amino]-10,13-dioxo-9,12-diazatricyclo[13.3.1.12,6]icosa-1(18),2(20),3,5,15(19),16-hexaene-8-carboxamide] — 12-fold lower, 0.13 µM
- Cc1nc(-c2ccc(C(C)(C)C)cc2F)nc(C)c1C(=O)N[C@@H](CCN)C(=O)N(C)[C@@H]1C(=O)N[C@@H](C)C(=O)N[C@H](C(=O)NCC#N)Cc2ccc(OCCN)c(c2)-c2cc1ccc2OCCN (racemic) [Compound 299, rac-(8S,11S,14S)-3,18-bis(2-aminoethoxy)-N-(cyanomethyl)-11-methyl-14-[methyl-[rac-(2S)-4-amino-2-[[2-(4-tert-butyl-2-fluoro-phenyl)-4,6-dimethyl-pyrimidine-5-carbonyl]amino]butanoyl]amino]-10,13-dioxo-9,12-diazatricyclo[13.3.1.12,6]icosa-1(18),2(20),3,5,15(19),16-hexaene-8-carboxamide] — 3.9-fold lower, 0.38 µM
